{
  "source": "paper PMC8391575",
  "about": "“Identification of Novel Cathepsin B Inhibitors with Implications in Alzheimer’s Disease: Computational Refining and Biochemical Evaluation” (Cells, 2021)",
  "origin": "cited, not measured here",
  "system": "cathepsin B",
  "conditions": "cited from earlier work; for pIC50 Experimental: Table 4",
  "key": {"[1]": {"conditions": "class of the experimental IC50, read-out: Activity Scale Experimental"}, "[2]": {"conditions": "Table S1, read-out: IC50: half maximal inhibitory concentration"}, "[3]": {"conditions": "Figure 1, previously reported inhibitors of cathepsin B, read-out: IC50"}},
  "note": "Read-outs that look alike come from different tables or passages of the source.",
  "data": [
    {"smiles": "CC(C)C[C@H](NC(=O)[C@H]1O[C@@H]1C(=O)O)C(=O)NCCCCN=C(N)N", "note": "[Compound N13, (2S,3S)-3-[[(2S)-1-[4-(diaminomethylideneamino)butylamino]-4-methyl-1-oxopentan-2-yl]carbamoyl]oxirane-2-carboxylic acid]", "values": [
      {"measurement": "pIC50 Experimental", "result": 8.28},
      {"measurement": "IC50", "setting": "[1]", "result": "< 300", "unit": "nM"}
    ]},
    {"smiles": "Nc1cc(OC(=O)c2cccs2)nn1S(=O)(=O)c1ccccc1", "note": "[Compound S34, [5-amino-1-(benzenesulfonyl)pyrazol-3-yl] thiophene-2-carboxylate]", "values": [
      {"measurement": "pIC50 Experimental", "result": 6.61},
      {"measurement": "IC50", "setting": "[1]", "result": "< 300", "unit": "nM"}
    ]},
    {"smiles": "COc1ccccc1/N=C/c1nc(-c2ccccc2)oc1OC(C)=O", "note": "[Compound S20, [4-[(2-methoxyphenyl)iminomethyl]-2-phenyl-1,3-oxazol-5-yl] acetate]", "values": [
      {"measurement": "pIC50 Experimental", "result": 5.05},
      {"measurement": "IC50", "setting": "[1]", "result": "> 2500", "unit": "nM"}
    ]},
    {"smiles": "CC(NC(=O)C(Cc1ccccc1)NC(=O)OCc1ccccc1)C([O-])=C[N+]#N", "note": "(centres unmarked) [Compound S4, 1-diazonio-3-[[3-phenyl-2-(phenylmethoxycarbonylamino)propanoyl]amino]but-1-en-2-olate]", "values": [
      {"measurement": "pIC50 Experimental", "result": 8.03},
      {"measurement": "IC50", "setting": "[1]", "result": "< 300", "unit": "nM"}
    ]},
    {"smiles": "CC(C)C[C@H](NC(=O)C1OC1C(=O)O)C(=O)NCCCC[C@H](N)C(=O)O", "note": "(stereo partly drawn) [Compound N2, 3-[[(2S)-1-[[(5S)-5-amino-5-carboxypentyl]amino]-4-methyl-1-oxopentan-2-yl]carbamoyl]oxirane-2-carboxylic acid]", "values": [
      {"measurement": "pIC50 Experimental", "result": 6.89},
      {"measurement": "IC50", "setting": "[2]", "result": 130, "unit": "nM"},
      {"measurement": "IC50", "setting": "[1]", "result": "< 300", "unit": "nM"}
    ]},
    {"smiles": "CCCNC(=O)C1OC1C(=O)NC(C(=O)N1CCCC1C(=O)OC)C(C)CC", "note": "(centres unmarked) [Compound S38, methyl1-[3-methyl-2-[[3-(propylcarbamoyl)oxirane-2-carbonyl]amino]pentanoyl]pyrrolidine-2-carboxylate]", "values": [
      {"measurement": "IC50", "setting": "[3]", "result": "[…]"},
      {"measurement": "pIC50 Experimental", "result": "[…]"},
      {"measurement": "IC50", "setting": "[2]", "result": "[…]"},
      {"measurement": "IC50", "setting": "[1]", "result": "[…]"}
    ]},
    {"smiles": "COc1cc(O)c2c(=O)cc(-c3ccc(OC)c(-c4c(O)cc(O)c5c(=O)cc(-c6ccc(O)cc6)oc45)c3)oc2c1", "note": "[Compound N17, 5,7-dihydroxy-8-[5-(5-hydroxy-7-methoxy-4-oxochromen-2-yl)-2-methoxyphenyl]-2-(4-hydroxyphenyl)chromen-4-one]", "values": [
      {"measurement": "pIC50 Experimental", "result": 6.26},
      {"measurement": "IC50", "setting": "[2]", "result": 550, "unit": "nM"},
      {"measurement": "IC50", "setting": "[1]", "result": "300 to 2500", "unit": "nM"}
    ]},
    {"smiles": "CC1=C(C)C[S+]([O-])N(S(=O)(=O)c2ccc(Cl)cc2)C1", "note": "(centres unmarked) [Compound S25, 2-(4-chlorophenyl)sulfonyl-4,5-dimethyl-3,6-dihydrothiazine 1-oxide]", "values": [
      {"measurement": "pIC50 Experimental", "result": 5.38},
      {"measurement": "IC50", "setting": "[1]", "result": "> 2500", "unit": "nM"}
    ]},
    {"smiles": "O=[N+]([O-])NC1=NCCN1Cc1ccc(Cl)nc1", "note": "[Compound N10, N-[1-[(6-chloropyridin-3-yl)methyl]-4,5-dihydroimidazol-2-yl]nitramide]", "values": [
      {"measurement": "pIC50 Experimental", "result": 8.03},
      {"measurement": "IC50", "setting": "[1]", "result": "< 300", "unit": "nM"}
    ]},
    {"smiles": "O=C1C[C@@H](c2ccc(O)c(-c3c(O)cc(O)c4c(=O)cc(-c5ccc(O)cc5)oc34)c2)Oc2cc(O)cc(O)c21", "note": "[AMF4, 2,3-dihydroamentoflavone]", "values": [
      {"measurement": "IC50", "setting": "[3]", "result": 620, "unit": "nM"}
    ]},
    {"smiles": "COc1cc(O)c2c(=O)cc(-c3ccc(O)c(-c4c(O)cc(O)c5c(=O)cc(-c6ccc(O)cc6)oc45)c3)oc2c1", "note": "[Compound N21, 5,7-dihydroxy-8-[2-hydroxy-5-(5-hydroxy-7-methoxy-4-oxochromen-2-yl)phenyl]-2-(4-hydroxyphenyl)chromen-4-one]", "values": [
      {"measurement": "pIC50 Experimental", "result": 5.77},
      {"measurement": "IC50", "setting": "[2]", "result": 1680, "unit": "nM"},
      {"measurement": "IC50", "setting": "[1]", "result": "300 to 2500", "unit": "nM"}
    ]},
    {"smiles": "COc1ccc(-c2cc(=O)c3c(O)cc(O)c(-c4cc(-c5cc(=O)c6c(O)cc(O)cc6o5)ccc4O)c3o2)cc1", "note": "[AMF2, 4’’’-methylamentoflavone]", "values": [
      {"measurement": "IC50", "setting": "[3]", "result": 1030, "unit": "nM"}
    ]},
    {"smiles": "COc1cc(OC)cc(-c2cc3cnc(N)nc3nc2NC(=O)NC(C)(C)C)c1", "note": "[Compound N18, 1-[2-amino-6-(3,5-dimethoxyphenyl)pyrido[2,3-d]pyrimidin-7-yl]-3-tert-butylurea]", "values": [
      {"measurement": "pIC50 Experimental", "result": 6.24},
      {"measurement": "IC50", "setting": "[2]", "result": 580, "unit": "nM"},
      {"measurement": "IC50", "setting": "[1]", "result": "300 to 2500", "unit": "nM"}
    ]},
    {"smiles": "CC(=O)NC(=O)NC1OC(=O)C(Cl)=C1Cl", "note": "(centres unmarked) [Compound S16, N-[(3,4-dichloro-5-oxo-2H-furan-2-yl)carbamoyl]acetamide]", "values": [
      {"measurement": "pIC50 Experimental", "result": 5.67},
      {"measurement": "IC50", "setting": "[2]", "result": 2120, "unit": "nM"},
      {"measurement": "IC50", "setting": "[1]", "result": "300 to 2500", "unit": "nM"}
    ]},
    {"smiles": "CCn1nc(-c2cccs2)nc2c(=O)n(C)c(=O)nc1-2", "note": "[Compound S13, 1-Ethyl-6-methyl-3-thiophen-2-yl-1H-pyrimido[5,4-e][1,2,4]triazine-5,7-dione]", "values": [
      {"measurement": "pIC50 Experimental", "result": 7.14},
      {"measurement": "IC50", "setting": "[1]", "result": "< 300", "unit": "nM"}
    ]},
    {"smiles": "O=C(Oc1oc(-c2ccco2)nc1/C=N/c1ccccc1)c1ccco1", "note": "[Compound S22, [2-(furan-2-yl)-4-(phenyliminomethyl)-1,3-oxazol-5-yl] furan-2-carboxylate]", "values": [
      {"measurement": "pIC50 Experimental", "result": 4.41},
      {"measurement": "IC50", "setting": "[1]", "result": "> 2500", "unit": "nM"}
    ]},
    {"smiles": "COc1ccc(-c2cc(=O)c3c(O)cc(O)c(-c4cc(-c5cc(=O)c6c(O)cc(OC)cc6o5)ccc4OC)c3o2)cc1", "note": "[Compound N4, 5,7-dihydroxy-8-[5-(5-hydroxy-7-methoxy-4-oxochromen-2-yl)-2-methoxyphenyl]-2-(4-methoxyphenyl)chromen-4-one]", "values": [
      {"measurement": "pIC50 Experimental", "result": 6.21},
      {"measurement": "IC50", "setting": "[2]", "result": 620, "unit": "nM"},
      {"measurement": "IC50", "setting": "[1]", "result": "300 to 2500", "unit": "nM"}
    ]},
    {"smiles": "Cc1c2ccncc2c(C)c2c1[nH]c1ccccc12", "note": "[Compound N12, 5,11-dimethyl-6H-pyrido[4,3-b]carbazole]", "values": [
      {"measurement": "pIC50 Experimental", "result": 7.99},
      {"measurement": "IC50", "setting": "[1]", "result": "< 300", "unit": "nM"}
    ]},
    {"smiles": "COc1ccc(C(=O)C(OC(=O)CNC(=O)c2ccco2)c2ccccc2)cc1", "note": "(centres unmarked) [Compound S36, [2-(4-methoxyphenyl)-2-oxo-1-phenylethyl] 2-(furan-2-carbonylamino)acetate]", "values": [
      {"measurement": "pIC50 Experimental", "result": 4.74},
      {"measurement": "IC50", "setting": "[1]", "result": "> 2500", "unit": "nM"}
    ]},
    {"smiles": "Nc1cc(OC(=O)c2ccco2)nn1S(=O)(=O)c1ccc(F)cc1", "note": "[Compound S10, [5-amino-1-(4-fluorophenyl)sulfonylpyrazol-3-yl] furan-2-carboxylate]", "values": [
      {"measurement": "pIC50 Experimental", "result": 5.9},
      {"measurement": "IC50", "setting": "[1]", "result": "300 to 2500", "unit": "nM"}
    ]},
    {"smiles": "N#Cc1c(N2CCCC2)nc(N)c2c(N)nc(N3CCCC3)cc12", "note": "[Compound S29, 1,8-diamino-3,6-dipyrrolidin-1-yl-2,7-naphthyridine-4-carbonitrile]", "values": [
      {"measurement": "pIC50 Experimental", "result": 5.49},
      {"measurement": "IC50", "setting": "[1]", "result": "> 2500", "unit": "nM"}
    ]},
    {"smiles": "Nc1nonc1-c1nc2ccccc2n1Cc1ccc(F)cc1", "note": "[Compound S5, 4-[1-[(4-fluorophenyl)methyl]benzimidazol-2-yl]-1,2,5-oxadiazol-3-amine]", "values": [
      {"measurement": "pIC50 Experimental", "result": 4.47},
      {"measurement": "IC50", "setting": "[1]", "result": "> 2500", "unit": "nM"}
    ]},
    {"smiles": "COc1ccc(S(=O)(=O)n2nc(OC(=O)c3ccccc3)cc2N)cc1", "note": "[Compound S17, [5-amino-1-(4-methoxyphenyl)sulfonylpyrazol-3-yl] benzoate]", "values": [
      {"measurement": "pIC50 Experimental", "result": 5.02},
      {"measurement": "IC50", "setting": "[1]", "result": "> 2500", "unit": "nM"}
    ]},
    {"smiles": "CCC(=O)Oc1oc(-c2ccccc2)nc1/C=N/c1ccccc1OC", "note": "[Compound S21, [4-[(2-methoxyphenyl)iminomethyl]-2-phenyl-1,3-oxazol-5-yl] propanoate]", "values": [
      {"measurement": "pIC50 Experimental", "result": 4.39},
      {"measurement": "IC50", "setting": "[1]", "result": "> 2500", "unit": "nM"}
    ]},
    {"smiles": "CCCNC(=O)[C@H]1OC1C(=O)N[C@H](C(=O)N1CCC[C@H]1C(=O)O)[C@@H](C)CC", "note": "(stereo partly drawn) [Compound S1, (2S)-1-[(2S,3S)-3-methyl-2-[[(3S)-3-(propylcarbamoyl)oxirane-2-carbonyl]amino]pentanoyl]pyrrolidine-2-carboxylic acid]", "values": [
      {"measurement": "pIC50 Experimental", "result": "[…]"},
      {"measurement": "IC50", "setting": "[1]", "result": "[…]"}
    ]},
    {"smiles": "NC(N)=NCCCCNC(=O)C(Cc1ccc(O)cc1)NC(=O)C1OC1C(=O)O", "note": "(centres unmarked) [Compound N16, 3-[[1-[4-(diaminomethylideneamino)butylamino]-3-(4-hydroxyphenyl)-1-oxopropan-2-yl]carbamoyl]oxirane-2-carboxylic acid]", "values": [
      {"measurement": "pIC50 Experimental", "result": 6.49},
      {"measurement": "IC50", "setting": "[2]", "result": 320, "unit": "nM"},
      {"measurement": "IC50", "setting": "[1]", "result": "300 to 2500", "unit": "nM"}
    ]}
  ]
}
